Columns and labels:
[1] = logP by HPLC on reverse-phase column (EEC Directive 79/831 Annex V.A8); assay type: physicochemical
Description: The logP values reported in the above Tables and Preparation Examples were determined according to EEC Directive 79/831 Annex V.A8 by HPLC (High Performance Liquid Chromatography) on a reverse-phase column (C18). Temperature 43° C.

[2] = tested on: mustard beetle (Phaedon cochleariae); experiment: Phaedon test (PHAECO spray treatment), Example 7; assay type: in vivo; settings: application rate 20 g/ha, china cabbage leaf discs sprayed, after 7 days
Description: Phaedon Test (PHAECO Spray Treatment)
(§1) • Solvent: 78.0 parts by weight of acetone • 1.5 parts by weight of dimethylformamide • Emulsifier: 0.5 part by weight of alkylaryl polyglycol ether
To prepare an active ingredient formulation, 1 part by weight of active ingredient is mixed with the stated amounts of solvent and emulsifier, and the concentrate is diluted with emulsifier-containing water to the desired concentration. Leaf discs from china cabbage (Brassica pekinensis) are sprayed with an active ingredient formulation of the desired concentration and, after drying, populated with larvae of the mustard beetle (Phaedon cochleariae).
After 7 days, the efficacy in % is determined. 100% means that all beetle larvae were killed; 0% means that no beetle larvae were killed.

Boophilus microplus = Boophilus microplus test (BOOPMI injection), Example 11; assay type: in vivo; settings: application rate 20 μg/animal, injected into abdomen, after 7 days
Description: Boophilus microplus Test (BOOPMI Injection) • Solvent: dimethyl sulphoxide To prepare an appropriate active ingredient formulation, 10 mg of active ingredient are mixed with 0.5 ml of solvent and the concentrate is diluted with solvent to the desired concentration. The active ingredient solution is injected into the abdomen (Boophilus microplus), and the animals are transferred to dishes and stored in a climate-controlled room. The efficacy was assessed by the number of fertile eggs laid. After 7 days, the efficacy in % is determined. 100% means that none of the ticks has laid any fertile eggs.

[3] = tested on: armyworm (Spodoptera frugiperda); experiment: Spodoptera frugiperda test (SPODFR spray treatment), Example 15; assay type: in vivo; settings: maize leaf discs sprayed, after 7 days
Description: Spodoptera frugiperda Test (SPODFR Spray Treatment)
as §1
To prepare an appropriate active ingredient formulation, 1 part by weight of active ingredient is mixed with the stated amounts of solvent and emulsifier, and the concentrate is diluted with emulsifier-containing water to the desired concentration. Leaf discs from maize (Zea mays) are sprayed with an active ingredient formulation of the desired concentration and, after drying, populated with caterpillars of the armyworm (Spodoptera frugiperda).
After 7 days, the efficacy in % is determined. 100% means that all caterpillars were killed; 0% means that no caterpillars were killed.

[4] = HPLC, C18 reverse phase, 43° C., acidic range pH 2.7, calibration with alkan-2-ones
[5] = HPLC-MS, HPLC on reverse-phase column

| SMILES | efficacy in % [2] | logP ([1]; HPLC-MS) | efficacy in % ([3]; application rate 100 g/ha) | also measured |
| --- | --- | --- | --- | --- |
| O=C(NC(c1cc(Cl)cc(Cl)c1)C(F)(F)F)c1cc2ccc(C(=O)NC3CC3)c(Cl)c2[nH]1 (racemic) [Ic-22] | 100% | – | – | logP [1, 4]: HPLC-MS: logP = 3.42; mass |
| O=C(NC(c1cccc(C(F)(F)F)c1)C(F)(F)F)c1cc2cc(C(=O)NCc3ccccn3)c(Cl)cc2[nH]1 (racemic) [Ic-23] | 100% | – | – | logP [1, 4]: HPLC-MS: logP = 2.49; mass |
| O=C(/C=C/c1ccc(C(=O)NC2CC2)c(C(F)(F)F)c1)NC(c1ccc(Cl)c(Cl)c1)C(F)(F)F (centres unmarked) [Ia-37] | 100% | HPLC-MS: logP = 3.41; mass | – | – |
| O=C(/C=C/c1ccc(C(=O)NC2CC2c2ccccc2)c(C(F)(F)F)c1)NC(c1cccc(C(F)(F)F)c1)C(F)(F)F (centres unmarked) [Ia-71] | 100% | HPLC-MS: logP = 4.22; mass | – | – |
| Cc1cc(/C=C/C(=O)NC(c2cccc(C(F)(F)F)c2)C(F)(F)F)ccc1C(=O)NC1COC1 (centres unmarked) [Ia-83] | 100% | HPLC-MS: logP = 2.69 mass | – | – |
| O=C(/C=C/c1ccc(C(=O)Nc2ccncc2)c(C(F)(F)F)c1)NC(c1cccc(C(F)(F)F)c1)C(F)(F)F (centres unmarked) [Ia-84] | 100% | HPLC-MS: logP = 1.99 mass | – | – |
| Cc1cc(/C=C/C(=O)NC(c2cccc(C(F)(F)F)c2)C(F)(F)F)ccc1C(=O)NC1CCOCC1 (centres unmarked) [Ia-86] | 100% | HPLC-MS: logP = 2.89 mass | – | – |
| Cc1cc(/C=C/C(=O)NC(c2cccc(C(F)(F)F)c2)C(F)(F)F)ccc1C(=O)NCc1ccc(F)cn1 (centres unmarked) [Ia-87] | 100% | HPLC-MS: logP = 3.13 mass | – | – |
| Cc1cc(/C=C/C(=O)NC(c2cccc(C(F)(F)F)c2)C(F)(F)F)ccc1C(=O)Nc1ccncc1 (centres unmarked) [Ia-88] | 100% | HPLC-MS: logP = 1.87 mass | – | – |
| CN(C(=O)c1ccc(/C=C/C(=O)NC(c2cccc(C(F)(F)F)c2)C(F)(F)F)cc1Br)c1ccccn1 (centres unmarked) [Ia-89] | 100% | HPLC-MS: logP = 3.47 mass | – | – |
| O=C(/C=C/c1ccc(C(=O)Nc2ccncc2)c(Br)c1)NC(c1cccc(C(F)(F)F)c1)C(F)(F)F (centres unmarked) [Ia-91] | 100% | HPLC-MS: logP = 1.96 mass | – | – |
| O=C(/C=C/c1ccc(C(=O)NC2CCOCC2)c(Cl)c1)NC(c1cccc(C(F)(F)F)c1)C(F)(F)F (centres unmarked) [Ia-97] | 100% | HPLC-MS: logP = 2.99 mass | – | – |
| O=C(/C=C/c1ccc(C(=O)Nc2ccccn2)c(Cl)c1)NC(c1cccc(C(F)(F)F)c1)C(F)(F)F (centres unmarked) [Ia-98] | 100% | HPLC-MS: logP = 3.47 mass | – | – |
| Cc1cc(/C=C/C(=O)NC(c2cccc(C(F)(F)F)c2)C(F)(F)F)ccc1C(=O)NC1CCC1 (centres unmarked) [Ia-101] | 100% | HPLC-MS: logP = 3.53 mass | – | – |
| Cc1cc(/C=C/C(=O)NC(c2cccc(C(F)(F)F)c2)C(F)(F)F)ccc1C(=O)NC(C)C (centres unmarked) [Ia-102] | 100% | HPLC-MS: logP = 3.27 mass | – | – |
| COC(=O)N(C)NC(=O)c1ccc(/C=C/C(=O)NC(c2cccc(C(F)(F)F)c2)C(F)(F)F)cc1Br (centres unmarked) [Ia-103] | 100% | HPLC-MS: logP = 2.89 mass | – | – |
| O=C(/C=C/c1ccc(C(=O)NCC(F)F)c(Br)c1)NC(c1cccc(C(F)(F)F)c1)C(F)(F)F (centres unmarked) [Ia-104] | 100% | HPLC-MS: logP = 3.23 mass | – | – |
| O=C(/C=C/c1ccc(C(=O)Nc2cc(Cl)ccn2)c(C(F)(F)F)c1)NC(c1cccc(C(F)(F)F)c1)C(F)(F)F (centres unmarked) [Ia-121] | – | HPLC-MS: logP = 4.3; mass | – | efficacy in % (fertile eggs laid) (Boophilus microplus): 100% |
| Cn1ccc(NC(=O)c2ccc(/C=C/C(=O)NC(c3cccc(C(F)(F)F)c3)C(F)(F)F)cc2C(F)(F)F)n1 (centres unmarked) [Ia-124] | – | HPLC-MS: logP = 3.28; mass | 100% | efficacy in % (fertile eggs laid) (Boophilus microplus): 100% |
| O=C(/C=C/c1ccc(C(=O)Nc2ccncn2)c(C(F)(F)F)c1)NC(c1cccc(C(F)(F)F)c1)C(F)(F)F (centres unmarked) [Ia-125] | – | HPLC-MS: logP = 3.35; mass | 100% | efficacy in % (fertile eggs laid) (Boophilus microplus): 100% |
| O=C(/C=C/c1ccc(C(=O)NCc2cc(Cl)ccn2)c(C(F)(F)F)c1)NC(c1cccc(C(F)(F)F)c1)C(F)(F)F (centres unmarked) [Ia-126] | – | HPLC-MS: logP = 3.68; mass | – | efficacy in % (fertile eggs laid) (Boophilus microplus): 100% |
| N#CCNC(=O)c1ccc(/C=C/C(=O)NC(c2cccc(C(F)(F)F)c2)C(F)(F)F)cc1C(F)(F)F (centres unmarked) [Ia-129] | – | HPLC-MS: logP = 3.19; mass | 100% | efficacy in % (fertile eggs laid) (Boophilus microplus): 100% |

| SMILES | efficacy in % [2] | logP ([1]; HPLC-MS) | efficacy in % ([3]; application rate 100 g/ha) | also measured |
| --- | --- | --- | --- | --- |
| O=C(/C=C/c1ccc(-n2cccn2)c(C(F)(F)F)c1)NC(c1cccc(C(F)(F)F)c1)C(F)(F)F (centres unmarked) [Ia-135] | – | HPLC-MS: logP = 3.95; mass | – | efficacy in % (fertile eggs laid) (Boophilus microplus): 100% |
| CCC(C)NC(=O)c1ccc(/C=C/C(=O)NC(c2cccc(C(F)(F)F)c2)C(F)(F)F)cc1C(F)(F)F (centres unmarked) [Ia-144] | – | HPLC-MS: logP = 3.84; mass | – | efficacy in % (fertile eggs laid) (Boophilus microplus): 100% |
| O=C(/C=C/c1ccc(C(=O)NCC=CCl)c(C(F)(F)F)c1)NC(c1cccc(C(F)(F)F)c1)C(F)(F)F (centres unmarked) [Ia-145] | – | HPLC-MS: logP = 3.69; mass | – | efficacy in % (fertile eggs laid) (Boophilus microplus): 100% |
| NC(=O)c1ccc(/C=C/C(=O)NC(c2cccc(C(F)(F)F)c2)C(F)(F)F)cc1Cl (centres unmarked) [Ia-157] | – | HPLC-MS: logP = 2.75; mass | – | efficacy in % (fertile eggs laid) (Boophilus microplus): 100% |
| O=C(/C=C/c1ccc(C(=O)NCc2nccs2)c(Cl)c1)NC(c1cccc(C(F)(F)F)c1)C(F)(F)F (centres unmarked) [Ia-159] | – | HPLC-MS: logP = 3.13; mass | – | efficacy in % (fertile eggs laid) (Boophilus microplus): 100% |
| CCOC1(NC(=O)c2ccc(/C=C/C(=O)NC(c3cccc(C(F)(F)F)c3)C(F)(F)F)cc2Br)CC1 (centres unmarked) [Ia-237] | – | HPLC-MS: logP = 3.42; mass | – | efficacy in % (fertile eggs laid) (Boophilus microplus): 100% |
| O=C(/C=C/c1ccc(C(=O)N(Cc2cccnc2)C2CC2)c(C(F)(F)F)c1)NC(c1cccc(C(F)(F)F)c1)C(F)(F)F (centres unmarked) [Ia-258] | – | HPLC-MS: logP = 2.8; mass | 100% | – |
| Cc1ccnc(NC(=O)c2ccc(/C=C/C(=O)NC(c3cccc(C(F)(F)F)c3)C(F)(F)F)cc2C(F)(F)F)c1 (centres unmarked) [Ia-259] | – | HPLC-MS: logP = 3.61; mass | 100% | – |
| N#Cc1ccnc(NC(=O)c2ccc(/C=C/C(=O)NC(c3cccc(C(F)(F)F)c3)C(F)(F)F)cc2C(F)(F)F)c1 (centres unmarked) [Ia-260] | – | – | 100% | logP [1, 5]: HPLC-MS: logP = 3.61; mass |
| O=C(/C=C/c1ccc(CNc2cc(Cl)ccn2)c(C(F)(F)F)c1)NC(c1cccc(C(F)(F)F)c1)C(F)(F)F (centres unmarked) [Ia-264] | – | – | 100% | logP [1, 5]: HPLC-MS: logP = 4.28; mass |
| O=C(/C=C/c1ccc(CNC(=O)C2CCC2)c(C(F)(F)F)c1)NC(c1cccc(C(F)(F)F)c1)C(F)(F)F (centres unmarked) [Ia-267] | – | – | 100% | logP [1, 5]: HPLC-MS: logP = 3.9; mass |
| O=C(/C=C/c1ccc(CNS(=O)(=O)C2CC2)c(C(F)(F)F)c1)NC(c1cccc(C(F)(F)F)c1)C(F)(F)F (centres unmarked) [Ia-271] | – | – | 100% | logP [1, 5]: HPLC-MS: logP = 3.74; mass |
| CCC(=O)NCc1ccc(/C=C/C(=O)NC(c2ccc(F)c(C(F)(F)F)c2)C(F)(F)F)cc1C(F)(F)F (centres unmarked) [Ia-272] | – | – | 100% | logP [1, 5]: HPLC-MS: logP = 3.61; mass |
| CCC(=O)NC(C)c1ccc(/C=C/C(=O)NC(c2cccc(C(F)(F)F)c2)C(F)(F)F)cc1F (centres unmarked) [Ia-273] | – | – | 100% | logP [1, 5]: HPLC-MS: logP = 3.3; mass |
| CCC(=O)NC(C)c1ccc(/C=C/C(=O)NC(c2ccc(F)c(Cl)c2)C(F)(F)F)cc1F (centres unmarked) [Ia-274] | – | – | 100% | logP [1, 5]: HPLC-MS: logP = 3.23; mass |
| CCC(=O)NC(C)c1ccc(/C=C/C(=O)NC(c2ccc(F)c(C(F)(F)F)c2)C(F)(F)F)cc1F (centres unmarked) [Ia-275] | – | – | 100% | logP [1, 5]: HPLC-MS: logP = 3.38; mass |
| CN(C(=O)c1ccc(/C=C/C(=O)NC(c2ccc(F)c(C(F)(F)F)c2)C(F)(F)F)cc1C(F)(F)F)c1ccccn1 (centres unmarked) [Ia-281] | – | – | 100% | logP [1, 5]: HPLC-MS: logP = 3.63; mass |
| O=C(/C=C/c1ccc(C(=O)NC2CC2)c(C(F)(F)F)c1)NC(c1cccc(Br)c1)C(F)(F)F (centres unmarked) [Ia-284] | – | – | 100% | logP [1, 5]: HPLC-MS: logP = 3.35; mass |
| O=C(/C=C/c1ccc(C(=O)Nc2ccccn2)c(C(F)(F)F)c1)NC(c1cncc(C(F)(F)F)c1)C(F)(F)F (centres unmarked) [Ib-2] | – | – | – | logP [1, 4]: HPLC-MS: logP = 3.02 mass (m/z):; efficacy in % ([3]; application rate 500 g/ha): 83% |
| N#Cc1ccc2[nH]c(C(=O)NC(c3cccc(C(F)(F)F)c3)C(F)(F)F)cc2c1 (centres unmarked) [Ic-4] | – | – | – | logP [1, 4]: HPLC-MS: logP = 3.48; mass; efficacy in % ([3]; application rate 500 g/ha): 83% |
| O=C(/C=C/c1ccc2c(c1)CCC2NC(=O)CC1CC1)NC(c1cccc(C(F)(F)F)c1)C(F)(F)F (centres unmarked) [Ie-2] | – | – | 100% | logP [1, 4]: HPLC-MS: logP = 3.54; mass |

— patent publication US8889878B2, “Haloalky-substituted amides as insecticides and acaricides” (Bayer CropScience AG, priority 2009, dated 2014)
